This is an account of results in patent US9145392B2, “Imidazole amines as modulators of kinase activity” (Merck Patent GmbH, priority 2011, dated 2015).

Assay [1] concerns the target P70S6K (T412E mutant) (Homo sapiens (Human), UniProt P23443, T412E). The assay can be described thus: P70S6K enzyme assay. Type of assay: biochemical. To be noted: read-out: IC50 p70S6K. A digest of the protocol:
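Phosphorylated product and substrate peptide separated by microfluidic capillary electrophoresis (Caliper LabChip 3000), product peaks resolving before substrate.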

The target of assay [2] is His-AKT (Full Length) (Homo sapiens (Human), UniProt P31749). The assay is described as follows: AKT enzyme assay. The assay is classed as biochemical. To be noted: read-out: IC50 AKT.
Chain of His-AKT (Full Length) (P31749 whole entry): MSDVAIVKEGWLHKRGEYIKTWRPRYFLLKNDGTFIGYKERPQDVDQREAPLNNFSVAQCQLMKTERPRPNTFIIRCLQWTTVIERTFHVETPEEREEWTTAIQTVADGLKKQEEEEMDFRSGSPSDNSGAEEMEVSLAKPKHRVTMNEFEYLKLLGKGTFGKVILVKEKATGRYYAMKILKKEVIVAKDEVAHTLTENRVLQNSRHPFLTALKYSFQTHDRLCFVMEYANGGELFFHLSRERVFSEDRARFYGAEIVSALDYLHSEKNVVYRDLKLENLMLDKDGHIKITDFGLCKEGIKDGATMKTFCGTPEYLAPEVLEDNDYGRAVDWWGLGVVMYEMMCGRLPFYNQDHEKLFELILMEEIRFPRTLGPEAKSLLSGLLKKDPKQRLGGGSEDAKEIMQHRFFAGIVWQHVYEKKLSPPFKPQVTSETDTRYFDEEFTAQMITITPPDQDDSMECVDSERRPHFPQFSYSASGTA

Chain of P70S6K (T412E mutant) (P23443 whole entry T412E): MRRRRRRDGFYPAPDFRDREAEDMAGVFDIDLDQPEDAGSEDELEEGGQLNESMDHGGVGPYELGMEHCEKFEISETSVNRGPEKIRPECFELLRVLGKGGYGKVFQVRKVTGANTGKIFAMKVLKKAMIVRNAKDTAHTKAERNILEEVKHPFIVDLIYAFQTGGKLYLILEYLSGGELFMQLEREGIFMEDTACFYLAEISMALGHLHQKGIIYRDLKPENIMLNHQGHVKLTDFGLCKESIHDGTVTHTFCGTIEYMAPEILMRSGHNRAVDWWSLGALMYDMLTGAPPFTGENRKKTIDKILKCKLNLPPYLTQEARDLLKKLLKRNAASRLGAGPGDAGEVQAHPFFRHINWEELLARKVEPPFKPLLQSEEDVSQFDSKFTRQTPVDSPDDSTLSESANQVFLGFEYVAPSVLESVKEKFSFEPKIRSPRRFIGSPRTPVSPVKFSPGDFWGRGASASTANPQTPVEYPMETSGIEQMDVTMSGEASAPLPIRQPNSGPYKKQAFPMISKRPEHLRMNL

Consider `Cc1cc(-c2cn(CCN3CCC3)c(C3CCN(c4ncnc(N)c4-c4cn[nH]c4)CC3)n2)ccc1F` [Compound 164, 6-(4-(1-(2-(azetidin-1-yl)ethyl)-4-(4-fluoro-3-methylphenyl)-1H-imidazol-2-yl)piperidin-1-yl)-5-(1H-pyrazol-4-yl)pyrimidin-4-amine], for which the half-maximal inhibitory concentration (IC50) in assay [1] turned out to be 4.4 nM; in assay [2], 5.5 nM.

On to `Cc1ccc(-c2cn(CCN3CCC3)c(C3CCN(c4ncnc(N)c4C(N)=O)CC3)n2)cc1F` [Compound 344], for which the IC50 stood at 25 nM in assay [1] and 2400 nM in assay [2].

Consider `CNCCn1cc(-c2ccnc(C(F)(F)F)c2)nc1C1CCN(c2ncnc(N)c2Br)CC1` [Compound 166, 5-bromo-6-(4-(1-(2-(methylamino)ethyl)-4-(2-(trifluoromethyl)pyridin-4-yl)-1H-imidazol-2-yl)piperidin-1-yl)pyrimidin-4-amine], for which the IC50 in assay [1] is 1.3 nM; in assay [2] it was 1.5 nM.
